#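 How tested: cells in 96-well plates exposed to compound for 48 hours at five concentrations. Here, GI50 denotes the concentration required for 50% inhibition of growth. TGI marks complete inhibition of growth.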
# Columns and labels:
# Assay in all cases: NCI anticancer screen, dose series, 48 h
# [1] = system: RXF 393 renal
# [2] = system: SNB-75 CNS
# [3] = system: HCC-2998 colon
# [4] = system: MCF7 breast
# [5] = system: EKVX NSCLC
# [6] = system: SK-MEL-5 melanoma
# [7] = system: CAKI-1 renal
# [8] = system: NCI-H226 lung
# [9] = system: OVCAR-5 ovarian
# [10] = system: U251 CNS
# [11] = system: HL-60(TB) leukemia
# [12] = system: IGROV1 ovarian
# [13] = system: MDA-MB-231 breast
# [14] = system: TK-10 renal
# [15] = system: SK-MEL-28 melanoma
# [16] = system: ACHN renal
# [17] = system: M14 melanoma
# [18] = system: A498 renal
# [19] = system: SNB-19 CNS
# [20] = system: T-47D breast
# [21] = system: NCI-H460 lung
# [22] = system: UO-31 renal
# [23] = system: MALME-3M melanoma
# [24] = system: SK-MEL-2 melanoma
# [25] = system: LOX IMVI melanoma
# [26] = system: NCI-H522 lung
# [27] = system: COLO 205 colon
# [28] = system: NCI/ADR-RES ovarian
# [29] = system: SK-OV-3 ovarian
# [30] = system: KM12 colon
# [31] = system: SF-539 CNS
# [32] = system: HCT-116 colon
# [33] = system: OVCAR-4 ovarian
# [34] = system: HOP-92 NSCLC
# [35] = system: MDA-MB-435
# [36] = system: A549 NSCLC
# [37] = system: SR leukemia
# [38] = system: K-562 leukemia
# [39] = system: SW-620 colon
# [40] = system: OVCAR-8 ovarian
# [41] = system: HS 578T breast
# [42] = system: UACC-62 melanoma
# [43] = system: BT-549 breast
# [44] = system: SF-268 CNS
# [45] = system: 786-0 renal
# [46] = system: SF-295 CNS
# [47] = system: RPMI-8226 leukemia
# [48] = system: MOLT-4 leukemia
# [49] = system: HOP-62 NSCLC
# [50] = system: DU-145 prostate
# [51] = system: SN12C renal
# [52] = system: PC-3 prostate
# [53] = system: UACC-257 melanoma
# [54] = system: HT29 colon
structure (smiles),measurement,setting,value
NC(N)=Nc1ccc(Oc2cccc(Oc3ccc(Cl)c(C(F)(F)F)c3)c2)cn1,GI50,[1],1790 nM
same,TGI,[1],3430 nM
same,GI50,[2],1330 nM
same,TGI,[2],2670 nM
COc1cc(NC2=C(Cl)C(=O)c3nc(C)ccc3C2=O)cc(OC)c1,GI50,[3],1810 nM
same,TGI,[3],3260 nM
same,GI50,[4],1820 nM
same,TGI,[4],5330 nM
same,GI50,[5],1600 nM
same,TGI,[5],3120 nM
same,GI50,[6],1620 nM
same,TGI,[6],2970 nM
same,GI50,[7],1760 nM
same,TGI,[7],3150 nM
same,GI50,[8],2820 nM
same,TGI,[8],8350 nM
same,GI50,[9],2380 nM
same,TGI,[9],5790 nM
same,GI50,[10],1920 nM
same,TGI,[10],4440 nM
same,GI50,[1],1630 nM
same,TGI,[1],2990 nM
same,GI50,[11],1380 nM
same,TGI,[11],4650 nM
same,GI50,[12],1730 nM
same,TGI,[12],3550 nM
same,GI50,[13],1460 nM
same,TGI,[13],3080 nM
same,GI50,[14],2320 nM
same,TGI,[14],3780 nM
same,GI50,[15],1790 nM
same,TGI,[15],3230 nM
same,GI50,[16],1670 nM
same,TGI,[16],3040 nM
same,GI50,[17],1690 nM
same,TGI,[17],3090 nM
same,GI50,[18],2350 nM
same,TGI,[18],11400 nM
same,GI50,[19],5820 nM
same,TGI,[19],18800 nM
same,GI50,[20],1500 nM
same,TGI,[20],3620 nM
same,GI50,[21],2680 nM
same,TGI,[21],8070 nM
same,GI50,[22],1690 nM
same,TGI,[22],3060 nM
same,GI50,[23],1760 nM
same,TGI,[23],3280 nM
same,GI50,[24],1590 nM
same,TGI,[24],3100 nM
same,GI50,[25],1100 nM
same,TGI,[25],2320 nM
same,GI50,[26],1560 nM
same,TGI,[26],3060 nM
same,GI50,[27],1680 nM
same,TGI,[27],3080 nM
same,GI50,[28],1810 nM
same,TGI,[28],4470 nM
same,GI50,[29],12600 nM
same,TGI,[29],25100 nM
same,GI50,[30],13000 nM
same,TGI,[30],26600 nM
same,GI50,[2],1940 nM
same,TGI,[2],5370 nM
same,GI50,[31],1790 nM
same,TGI,[31],3220 nM
same,GI50,[32],1530 nM
same,TGI,[32],2880 nM
same,GI50,[33],1400 nM
same,TGI,[33],2820 nM
same,GI50,[34],1730 nM
same,TGI,[34],3170 nM
same,GI50,[35],1720 nM
same,TGI,[35],3570 nM
same,GI50,[36],2830 nM
same,TGI,[36],8970 nM
same,GI50,[37],350 nM
same,TGI,[37],2430 nM
same,GI50,[38],381 nM
same,TGI,[38],> 100000 nM
same,GI50,[39],1760 nM
same,TGI,[39],3470 nM
same,GI50,[40],1640 nM
same,TGI,[40],3280 nM
same,GI50,[41],2430 nM
same,TGI,[41],5780 nM
same,GI50,[42],1770 nM
same,TGI,[42],3420 nM
same,GI50,[43],1970 nM
same,TGI,[43],3400 nM
same,GI50,[44],3250 nM
same,TGI,[44],14400 nM
same,GI50,[45],1520 nM
same,TGI,[45],2880 nM
same,GI50,[46],1990 nM
same,TGI,[46],5410 nM
same,GI50,[47],1790 nM
same,TGI,[47],5190 nM
same,GI50,[48],1500 nM
same,TGI,[48],7000 nM
same,GI50,[49],4260 nM
same,TGI,[49],14100 nM
same,GI50,[50],1840 nM
same,TGI,[50],3550 nM
same,GI50,[51],1710 nM
same,TGI,[51],3250 nM
same,GI50,[52],2560 nM
same,TGI,[52],10400 nM
same,GI50,[53],1510 nM
same,TGI,[53],2850 nM
same,GI50,[54],1870 nM
same,TGI,[54],3480 nM

# From PubChem BioAssay (NCI)
